Data set [1] relates to IL-17 production of mouse spleen cells stimulated by rm-IL-23. The data set can be described thus: Production of IL-17 induced when mouse spleen cells were stimulated by recombinant mouse interleukin-23 (rm-IL-23). The data set is classed as cell-based. As to conditions: inhibition of IL-17 production, DBA/1J mouse spleen cells, rm-IL-23 1 nmol/L, ELISA. In outline:
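Spleen cells from 6-7 week-old male DBA/1J mice, 2×10^5 cells/well in 10% FCS RPMI1640, cultured 72 h at 37° C with compound (1 to 1,000 nmol/L) plus 1 nmol/L rm-IL-23. IL-17 in supernatant by ELISA; viability by WST-8 absorbance at 450 nm; IC50 by linear regression of inhibition rate.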

Data set [2] has as its target T1, hERG (Homo sapiens, UniProt Q12809). The data set can be described thus: in vitro. As to conditions: pH 7.4, hERG inhibition rate (%) (1 μM).
Data set [3] has as its target T2, hERG current in hERG-expressed HEK 293 cells (Homo sapiens, UniProt Q12809). Kind of data set: Effects on hERG current (whole-cell clamping). As to conditions: 1 μM; tail peak current; hERG-expressed HEK 293 cells.
Data set [4] has as its target T2, hERG current in hERG-expressed HEK 293 cells.
For data set [5], the system named is Type II collagen-induced arthritis in DBA/1J mice. The data set can be described thus: Type II collagen-induced arthritis in DBA/1J mice. The data set is classed as in vivo, mouse. As to conditions: Mus musculus, 504 h; dose showing significant inhibitory effect on arthritis; oral, once a day for three weeks from booster immunization. Here is the method: Effect on Type II Collagen-Induced Arthritis in DBA/1J Mice
An emulsion was prepared by mixing bovine II collagen (100-200 μg purchased from collagen Gijyutsu Kenshuukai) and Freund's complete adjuvant (Sigma Aldrich) containing killed Mycobacterium tuberculosis H37Ra. Arthritis was induced by immunization through subcutaneous administration of the emulsion to the tail of 6-7 week-old male DBA/1J mouse (Charles River Japan, Inc.), followed by booster immunization three weeks later by administration of an emulsion prepared by mixing bovine II collagen with Freund's incomplete adjuvant (Sigma-Aldrich). Test compound was suspended or dissolved in 0.5% carboxymethylcellulose (Sigma-Aldrich) and repeatedly administered orally once a day at a dose of 0.1 to 10 mg/kg body weight using an oralsonde for three weeks from the day of booster immunization. In this model, the symptom of arthritis of the limbs was each evaluated according to the following evaluation criteria of 0 to 4 scores: 0, No change; 1, edema in only one joint; 2, edema in two or more joints, or light edema of the entire limb; 3, severe edema of the entire limb; 4, severe edema of the entire limb and ankylosis and immovability of joint. The score of arthritis of each mouse was expressed as the total of the scores of the limbs (Maximum: 16 points). On the next day of the last administration, soft X-ray photograph of the limbs was taken with soft X-ray equipment (Omic), and the level of joint destruction was evaluated by observation under a microscope. In each finger of the limbs the score of joint destruction was judged as 0 when no joint destruction was found, and as 1 when one or more destruction was found, and the score of joint destruction of a mouse was expressed as the total of scores for each finger of limb (Maximum: 20). The arthritis score and joint destruction score were expressed as the average value and standard error for each group (n=6-8). Only a vehicle was administered in a control group, and statistical analysis was performed by Dunnett's multiple comparison test, in which the case was judged as significant when the p value was less than 0.05.

The target of data set [6] is T1, hERG. The data set can be described thus: Effects on hERG current (whole-cell clamping). As to conditions: human, HEK 293 cells that express hERG, pH 7.4, hERG inhibition rate (%) (1 μM), 1 μM; tail peak current; hERG-expressed HEK 293 cells.

Here are results for twelve compounds from patent US9150555B2, “Amide derivative and use thereof” (Mitsubishi Tanabe Pharma Corporation, priority 2010, dated 2015).

Like-named read-outs stand apart in the source and are kept apart here.

T2 sequence (Q12809 whole entry): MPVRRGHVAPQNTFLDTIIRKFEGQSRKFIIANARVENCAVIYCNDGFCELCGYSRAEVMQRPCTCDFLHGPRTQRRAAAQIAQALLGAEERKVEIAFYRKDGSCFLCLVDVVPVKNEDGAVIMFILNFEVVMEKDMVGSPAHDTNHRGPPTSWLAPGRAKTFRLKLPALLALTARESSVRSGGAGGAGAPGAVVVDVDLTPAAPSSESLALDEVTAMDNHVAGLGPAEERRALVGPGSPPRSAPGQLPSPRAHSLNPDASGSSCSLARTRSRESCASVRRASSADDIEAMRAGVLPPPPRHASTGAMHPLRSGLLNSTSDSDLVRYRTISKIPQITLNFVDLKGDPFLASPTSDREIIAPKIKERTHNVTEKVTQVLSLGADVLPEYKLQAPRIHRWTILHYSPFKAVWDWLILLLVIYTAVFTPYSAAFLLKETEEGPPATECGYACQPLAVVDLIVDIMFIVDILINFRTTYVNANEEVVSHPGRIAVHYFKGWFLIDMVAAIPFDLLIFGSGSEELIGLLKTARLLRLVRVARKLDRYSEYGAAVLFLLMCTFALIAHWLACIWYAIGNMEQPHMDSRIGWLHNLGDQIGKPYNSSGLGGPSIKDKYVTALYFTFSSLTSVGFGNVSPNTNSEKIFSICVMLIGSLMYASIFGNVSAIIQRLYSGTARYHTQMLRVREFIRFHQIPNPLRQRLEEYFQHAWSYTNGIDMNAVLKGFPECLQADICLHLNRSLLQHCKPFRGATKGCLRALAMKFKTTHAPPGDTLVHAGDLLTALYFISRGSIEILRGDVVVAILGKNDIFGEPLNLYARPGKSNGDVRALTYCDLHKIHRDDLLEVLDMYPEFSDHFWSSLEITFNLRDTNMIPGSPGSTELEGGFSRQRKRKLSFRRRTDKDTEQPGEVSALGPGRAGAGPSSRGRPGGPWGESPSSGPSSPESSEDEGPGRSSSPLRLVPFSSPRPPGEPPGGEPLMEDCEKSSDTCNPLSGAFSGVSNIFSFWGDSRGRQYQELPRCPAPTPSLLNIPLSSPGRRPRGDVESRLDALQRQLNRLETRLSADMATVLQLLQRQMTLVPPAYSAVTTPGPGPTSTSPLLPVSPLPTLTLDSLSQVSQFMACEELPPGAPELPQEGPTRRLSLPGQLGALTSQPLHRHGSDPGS
T1 sequence (Q12809 whole entry): as above

On to `Cc1c(C(=O)Nc2ccc(C3(C#N)CCN([C@H]4CCO[C@H]4C)CC3)nc2)cnn1-c1ccc(C(F)(F)F)cn1` (relative stereo) [Example D8, cis-N-{6-[4-Cyano-1-(2-methyltetrahydrofuran-3-yl)piperidin-4-yl]pyridin-3-yl}-5-methyl-1-[5-(trifluoromethyl)pyridin-2-yl]-1H-pyrazole-4-carboxamide], for which the IC50 in data set [1] (72 hours) stood at 114 nM. Further, at hERG [2], the inhibition at 1 µM stood at 15.8%.

For the compound `Cc1c(C(=O)Nc2ccc(C3(C#N)CCN([C@H]4CCO[C@H]4C)CC3)nc2)cnn1-c1ccc(C2CC2)cn1` (relative stereo) [Example D10, cis-N-{6-[4-Cyano-1-(2-methyltetrahydrofuran-3-yl)piperidin-4-yl]pyridin-3-yl}-1-(5-cyclopropylpyridin-2-yl)-5-methyl-1H-pyrazole-4-carboxamide], in data set [1] (72 hours), the IC50 is 120 nM. This compound also registered an inhibition at 1 µM at hERG [2] of 6.7%.

Take `Cc1c(C(=O)Nc2ccc(C3(C#N)CCN([C@H]4CCO[C@H]4C)CC3)nc2)cnn1-c1ccc(C(F)(F)F)cc1` (relative stereo) [Example D11, cis-N-{6-[4-Cyano-1-(2-methyltetrahydrofuran-3-yl)piperidin-4-yl]pyridin-3-yl}-5-methyl-1-[4-(trifluoromethyl)phenyl]-1H-pyrazole-4-carboxamide]: in data set [1] (72 hours), the IC50 was 53.4 nM. Besides, 1 µM produced 21% inhibition on hERG [2].

For the compound `Cc1ccc(-n2ncc(C(=O)Nc3ccc(C4(C#N)CCC(N5CCOCC5)CC4)nc3)c2C)cc1.Cl` (stereo not shown) [Example D2, N-{6-[r-1-Cyano-c-4-(morpholin-4-yl)cyclohexyl]pyridin-3-yl}-5-methyl-1-(4-methylphenyl)-1H-pyrazole-4-carboxamide hydrochloride], the IC50 in data set [1] (72 hours) is 193 nM. In data set [3], the “hERG inhibition rate (%) (1 μM)” value turned out to be 43.4%.

`COCOC1CCC(C#N)(c2ccc(NC(=O)c3cnn(-c4ccc(C)cc4)c3C)cn2)CC1` (stereo not shown) [Example D3, N-{6-[r-1-Cyano-c-4-(methoxymethoxy)cyclohexyl]pyridin-3-yl}-5-methyl-1-(4-methylphenyl)-1H-pyrazole-4-carboxamide]: in data set [1] (72 hours), the IC50 is 182 nM. In addition, in data set [4], the “hERG inhibition rate (%) (1 μM)” value came out at 7.2%.

`Cc1c(C(=O)Nc2ccc(C3(C#N)CCN(CC(C)(C)O)CC3)nc2)cnn1-c1ccc(C(F)(F)F)cn1` [Example D9, N-{6-[4-Cyano-1-(2-hydroxy-2-methylpropyl)piperidin-4-yl]pyridin-3-yl}-5-methyl-1-[5-(trifluoromethyl)pyridin-2-yl]-1H-pyrazole-4-carboxamide]: the IC50 in data set [1] (72 hours) is 76.7 nM. For the same compound, the inhibition at 1 µM against hERG [2] stood at 42.1%.

As for `Cc1c(C(=O)Nc2ccc(C3(C#N)CCN(CC(C)(C)O)CC3)nc2)cnn1-c1ccc(C2CC2)cn1` [Example D12, N-{6-[4-Cyano-1-(2-hydroxy-2-methylpropyl)piperidin-4-yl]pyridin-3-yl}-1-(5-cyclopropylpyridin-2-yl)-5-methyl-1H-pyrazole-4-carboxamide], the 50% inhibitory concentration (IC50) in data set [1] (72 hours) was found to be 117 nM. For the same compound, the inhibition at 1 µM at hERG [2] came to 29.2%.

With `Cc1c(C(=O)Nc2ccc(C3(C#N)CCN(CC(C)(C)O)CC3)nc2)cnn1-c1ccc(Cl)cc1` [Example D116], in data set [1] (72 hours), the IC50 turned out to be 129 nM. Further, at hERG [2], the inhibition at 1 µM turned out to be 41.2%.

Take `Cc1c(C(=O)Nc2ccc(C3(C#N)CCN(CC(C)(C)O)CC3)nc2)cnn1-c1ccc(C(F)(F)F)cc1` [Example D117]: in data set [1] (72 hours), the IC50 amounted to 57 nM. Also, on hERG [2], the inhibition at 1 µM amounted to 35.6%.

`Cc1cc(NC(=O)c2cnn(-c3ccc(C(F)(F)F)cn3)c2C)cnc1C1=CC[C@@H](N2CCOCC2)CC1` [Example D303]: the IC50 in data set [1] (72 hours) stood at 48 nM. The “hERG inhibition rate (%) (1 μM)” value in data set [3] worked out at 22.7%.

For `Cc1c(C(=O)Nc2ccc(C3(C#N)CCN(C4CCOCC4)CC3)nc2)cnn1-c1ccc(C(F)(F)F)cc1` [Example E7], the IC50 in data set [1] (72 hours) is 349 nM. For the same compound, testing at 1 µM against hERG [2] gave an inhibition of 21.1%.

With `Cc1c(C(=O)Nc2ccc([C@]3(C#N)CC[C@@H](O)CC3)nc2)cnn1-c1ccc(F)cc1F` [Example G7], the IC50 in data set [1] (Mus musculus, 72 h) was 198 nM. The minimal effective dose in data set [5] is 0.3 mg/kg. At hERG [6], this compound came in with an inhibition at 1 µM of 5.2%.
